The numbers were not newly measured in US4057684A, “Alkyl amino-glucopyranoside derivative and process for producing the same” (priority 1975, dated 1977), which cites them from elsewhere.

For series [1] the following is noted: cited from earlier work.
For series [2] the following is noted: in vivo; cited from earlier work.
Series [3] has as its system tumor. Conditions: in vivo; cited from earlier work.
The conditions of series [4]: test animals; cited from earlier work.

In the case of `O=NN(CCCl)C(=O)N[C@H]1C(O)O[C@H](CO)[C@@H](O)[C@@H]1O` (stereo partly drawn) [2-[3-(2-chloroethyl)-3-nitrosoureido]-2-deoxy-D-glucopyranose], the water solubility entry in series [1] is “water-soluble”. Also, the bone marrow toxicity result in series [2] is “low bone marrow toxicity”. Besides, in series [3], the antitumor activity result is recorded as “improved antitumor activity”. The diabetogenic activity entry in series [4] is given as “diabetogenic”.
